Results as given in patent US5166155A, “Quinoxaline-2,3-dione compounds and their preparation and use” (Novo Nordisk A/S, priority 1990, dated 1992).

What was measured:
[1] = test system: NMDA receptor/ionophor complex, allosteric modulatory (glycine) site; conditions: literature; cited from earlier work
[2] = target: T1, NMDA receptor glycine site (glycine enhanced [3H]-MK-801 binding) (Rattus norvegicus, UniProt P35439); experiment: Antagonism of glycine enhanced [3H]-MK-801 binding (Test 2); conditions: Schild analysis; [3H]-MK-801 1 nM, glutamate 300 nM, rat cerebral membrane, 23° C., 60 min, pH 7.40
T1 construct: thawed and extensively washed rat cerebral membrane homogenate; from tissue; host or cells: rat cerebrum, extensively washed membrane homogenate
Description: The glycine antagonism is measured by determining the Ki value which represents the dissociation constant (μM) of the receptor-antagonist complex.
1 ml of thawed and extensively washed rat cerebral membrane homogenate in HEPES-NaOH (20 mM) pH 7.40 were incubated at 23° C. for 60 min. with 25 μl [^3 H]-MK-801 (1 nM final concentration), 25 μl glutamate (300 nM final concentration), test compound in concentrations corresponding to 0, 0.5, 2 and 5 times the IC50 value from the [^3 H]-glycine binding assay (test 1) for each concentration of glycine (10; 100; 1,000; 10,000 and 100,000 nM final concentration). The binding reaction was terminated by adding 5 ml of ice-cold buffer followed by rapid filtration through Whatman GF/C glass fiber filters and 5 ml wash with ice-cold buffer. Bound radioactivity was measured by scintillation counting. Ki values were determined by Schild analysis of the data using
log(dosis ration-1)=log[Inhibitor]-log(Ki).

[3] = target: T2, glycine site of the NMDA receptor complex (Rattus norvegicus, UniProt P35439); experiment: [3H]-glycine binding (Test 1); conditions: [3H]-glycine 10 nM, rat cerebral cortical membrane, 0° C., 10 min, pH 7.1
T2 construct: thawed rat cerebral cortical membrane homogenate; from tissue; host or cells: rat cerebral cortex, membrane homogenate
Description: The glycine site binding activity of these compounds of the present invention can be illustrated by determining their capability for displacing radioactively labelled glycine from the glycine site.
The displacement activity of the compounds may be shown by determining the IC50 value which represents the concentration (μM) which causes a displacement of 50% of the specific binding of [^3 H]-glycine.
1 ml of thawed rat cerebral cortical membrane homogenate in HEPES-Tris (5 mM) and MgCl2 (1 mM) pH 7.1 were incubated at 0° C. for 10 min. with 25 μl [^3 H]-glycine (10 nM final concentration) and the test compound and buffer. Non-specific binding was determined by incubating with D-serine (1 mM final concentration). The binding reaction was terminated by centrifugation at 15,000×g at 4° C. followed by washing of the pellet with three times 3 ml of ice-cold buffer. Bound radioactivity was measured by scintillation counting. IC50 was determined by Hill analysis of at least four concentrations of test compound.

[4] = test system: NMDA stimulated [3H]-GABA release; experiment: Inhibition of NMDA stimulated [3H]-GABA release from cultured mouse cerebral cortex interneurons (Test 3); type: cell-based; conditions: 3 μg/ml NMDA, 37° C.
Description: The NMDA antagonistic properties of the compounds is illustrated by determining their capability to antagonize NMDA stimulated [^3 H]-GABA release from cultured mouse cortex neurons. The NMDA antagonistic activity of the compounds may be shown by determining the IC50 value, which represents the concentration (μM) which inhibits 50% of NMDA induced [^3 H]-GABA release.
Release experiments are performed using the model described by Drejer et al. (Life Sci. 38, 2077 (1986)). To cerebral cortex interneurons cultured in petri dishes (30 mm) are added 100 μg/ml 3-vinyl-GABA one hour before the experiment in order to inhibit degradation of GABA in the neurons. 30 min. before the experiment 5 μCi [^3 H]-GABA is added to each culture and after this preloading period the cells are washed twice with HEPES buffered saline (HBS) containing 10 mM HEPES, 135 mM NaCl, 5 mM KCl, 0.6 mM MgSO4, 1.0 mM CaCl2 and 6 mM D-glucose; pH 7 and placed in a superfusion system. This system consists of a peristaltic pump continuously delivering thermostated 37° C. superfusion medium from a reservoir to the top of a slightly tilted petri dish. The cell monolayer at the bottom of the dish is covered with a piece of nylon mesh to facilitate dispersion of medium over the cell layer. The medium is continuously collected from the lower part of the dish and delivered to a fraction collector. Initially, the cells are superfused with HBS for 15 min. (flow rate 2 ml/min.). Then cells are stimulated for 30 sec. every 4 min. by changing the superfusion medium from HBS to a corresponding medium containing NMDA and antagonist according to the following scheme:
Stimulation no. 1:3 μg/ml NMDA
Stimulation no. 2:3 μg/ml NMDA+0.3 μg/ml antagonist
Stimulation no. 3:3 μg/ml NMDA+3.0 μg/ml antagonist
The release of [^3 H]-GABA in the presence of NMDA is corrected for the mean basal release before and after stimulation. The stimulated release in the presence of antagonist is expressed relative to the stimulated release by NMDA alone and the IC50 value is calculated.

NMDA receptor = conditions: cited from earlier work

Compound	Ki [2]	IC50 [3]	IC50 [4]	also measured
O=C(O)c1cc(O)c2ccc(Cl)cc2n1 [7-chlorokynurenate]	–	–	–	agonist/antagonist activity at the glycine site [1]: quite strong, but non-selective antagonists of glycine at the glycine site
N#Cc1cc2[nH]c(=O)c(=O)[nH]c2cc1[N+](=O)[O-] [CNQX, 6-cyano-7-nitroquinoxaline-2,3-dione]	–	–	–	agonist/antagonist activity at the glycine site [1]: weak antagonists
C[C@@H](N)C(=O)O [D-alanine]	–	–	–	agonist/antagonist activity at the glycine site [1]: strong agonist activity
N[C@@H]1CONC1=O [D-cycloserine]	–	–	–	agonist/antagonist activity at the glycine site [1]: partial agonists
N[C@H](CO)C(=O)O [D-serine]	–	–	–	agonist/antagonist activity at the glycine site [1]: strong agonist activity
O=C(O)Cn1c(=O)c(=O)[nH]c2cc(Cl)c(Cl)cc21 [Example 1, 1-Carboxymethyl-6,7-dichloroquinoxaline-2,3(1H,4H)-dione]	162 nM	350 nM	163 nM	–
O=C(O)Cn1c(=O)c(=O)[nH]c2cc(F)c(F)cc21 [Example 4, 1-Carboxymethyl-6,7-difluoroquinoxaline-2,3(1H,4H)-dione]	118 nM	500 nM	328 nM	–
Cc1cc2[nH]c(=O)c(=O)n(CC(=O)O)c2cc1C [Example 5, 1-Carboxymethyl-6,7-dimethylquinoxaline-2,3(1H,4H)-dione]	212 nM	554 nM	509 nM	–
O=C(O)Cn1c(=O)c(=O)[nH]c2cc(Br)c(Br)cc21 [Example 12, 1-Carboxymethyl-6,7-dibromoquinoxaline-2,3(1H,4H)-dione]	390 nM	849 nM	127 nM	–
COc1ccc2c(c1)n(O)c(=O)c(=O)n2CC(=O)O [Example 13, 1-Carboxymethyl-4-hydroxy-6-methoxyquinoxalin-2,3(1H,4H)-dione]	–	8000 nM	> 3750 nM	–
CCCCC(C(=O)O)n1c(=O)c(=O)[nH]c2cc(Cl)c(Cl)cc21 (centres unmarked) [Example 16, 1-((1-carboxy)pentyl)-6,7-dichloroquinoxaline-2,3(1H,4H)-dione]	100 nM	409 nM	–	–
O=C(O)Cn1c(=O)c(=O)[nH]c2cc(Cl)cc(Cl)c21 [Example 22, 1-Carboxymethyl-6,8-dichloroquinoxaline-2,3(1H, 4H)-dione]	–	852 nM	–	–
NC1CCN(O)C1=O (centres unmarked) [HA-966, 3-amino-1-hydroxy-2-pyrrolidone]	–	–	–	agonist/antagonist activity at the glycine site [1]: weak antagonists
NCC(=O)O [glycine]	–	–	–	glycine site binding affinity [1]: high affinity binding; effect on NMDA receptor agonist induced responses (NMDA receptor): increase NMDA receptor agonist induced responses
O=C1C[C@@H]2OCC=C3CN4CC[C@]56c7ccccc7N1[C@H]5[C@H]2[C@H]3C[C@H]46 [strychnine]	–	–	–	sensitivity of the glycine response to strychnine (NMDA receptor; cultured neurons, literature): insensitive

Continued, in another order:

Ki [2]	IC50 [3]	IC50 [4]	Compound	also measured
127 nM	544 nM	505 nM	O=C(O)Cn1c(=O)c(=O)[nH]c2cc(Br)ccc21 [Example 3, 6-Bromo-1-carboxymethylquinoxaline-2,3(1H,4H)-dione]	–
3400 nM	520 nM	394 nM	O=C(O)Cn1c(=O)c(=O)[nH]c2cc(Cl)ccc21 [Example 6, 1-Carboxymethyl-6-chloroquinoxaline-2,3(1H,4H)-dione]	–
–	2000 nM	–	O=C(O)Cn1c(=O)c(=O)[nH]c2cc([N+](=O)[O-])ccc21 [Example 7, 1-Carboxymethyl-6-nitroquinoxaline-2,3(1H,4H)-dione]	–
770 nM	2200 nM	1880 nM	CCCCC(C(=O)O)n1c(=O)c(=O)[nH]c2ccccc21 (centres unmarked) [Example 8, 1-((1-Carboxy)pentyl)-quinoxaline-2,3(1H,4H)-dione]	–
1900 nM	5000 nM	2860 nM	CCCC(C(=O)O)n1c(=O)c(=O)[nH]c2ccccc21 (centres unmarked) [Example 9, 1-((1-Carboxy)butyl)quinoxaline-2,3(1H,4H)-dione]	–
–	8000 nM	2620 nM	O=C(O)C(c1ccccc1)n1c(=O)c(=O)[nH]c2ccccc21 (centres unmarked) [Example 10, 1-(1-Carboxy-1-phenylmethyl)quinoxaline-2,3(1H,4H)-dione]	–
900 nM	3000 nM	–	CC(C(=O)O)n1c(=O)c(=O)[nH]c2ccccc21 (centres unmarked) [Example 11, 1-((1-Carboxy)ethyl)quinoxaline-2,3(1H,4H)-dione]	–
49 nM	587 nM	2640 nM	CCCCCC(C(=O)O)n1c(=O)c(=O)[nH]c2cc(Br)ccc21 (centres unmarked) [Example 15, 1-((1-Carboxy)hexyl)-6-bromoquinoxaline-2,3(1H, 4H)-dione]	–
–	7000 nM	–	O=C(O)Cn1c(=O)c(=O)[nH]c2ccc([N+](=O)[O-])cc21 [Example 19, 1-Carboxymethyl-7-nitroquinoxaline-2,3(1H,4H)-dione]	–
